Experiments:
Test in all cases: relative viability (nuclei count vs DMSO), 5 days (fraction); higher = more cells survive
BMX-IN-1 + Lapatinib = compound: C=CC(=O)Nc1cc(-n2c(=O)ccc3cnc4ccc(-c5ccc(NS(C)(=O)=O)cc5)cc4c32)ccc1C [BMX-IN-1] + CS(=O)(=O)CCNCc1ccc(-c2ccc3ncnc(Nc4ccc(OCc5cccc(F)c5)c(Cl)c4)c3c2)o1 [Lapatinib] (partner 2 µM)
Procedure, shortened: (§1)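 A single step with final 0.05% Triton X-100, 1% formaldehyde and 1 ug/ml Hoechst fixed the cells and stained nuclei 5 days after treatment. Lung cancer cell lines in 1536-well plates had been treated by pin tool the day after seeding with one drug alone or a fixed anchor-drug dose plus five library-drug doses (not always all listed) in √10 steps, and nuclei were counted on 4× images. Relative viability is the ratio of nuclei in treated wells to nuclei in vehicle wells, taken as the median of duplicate plates.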

BMX-IN-1 + Phenformin = compound: C=CC(=O)Nc1cc(-n2c(=O)ccc3cnc4ccc(-c5ccc(NS(C)(=O)=O)cc5)cc4c32)ccc1C [BMX-IN-1] + N=C(N)NC(=N)NCCc1ccccc1 [Phenformin] (partner 250 µM)
Procedure, shortened: as §1

PAC-1 + Crizotinib = compound: C=CCc1cccc(/C=N/NC(=O)CN2CCN(Cc3ccccc3)CC2)c1O [PAC-1] + C[C@@H](Oc1cc(-c2cnn(C3CCNCC3)c2)cnc1N)c1c(Cl)ccc(F)c1Cl [Crizotinib] (partner 1 µM)
Procedure, shortened: as §1

Ibrutinib + Pictilisib = compound: C=CC(=O)N1CCC[C@@H](n2nc(-c3ccc(Oc4ccccc4)cc3)c3c(N)ncnc32)C1 [Ibrutinib] + CS(=O)(=O)N1CCN(Cc2cc3nc(-c4cccc5[nH]ncc45)nc(N4CCOCC4)c3s2)CC1 [Pictilisib] (partner 1 µM)
Procedure, shortened: as §1

| Cell Line | relative viability (BMX-IN-1 + Lapatinib; first compound 0.02 µM) | relative viability (BMX-IN-1 + Lapatinib; first compound 0.2 µM) | relative viability (BMX-IN-1 + Lapatinib; first compound 0.6325 µM) | relative viability (BMX-IN-1 + Lapatinib; first compound 2 µM) | relative viability (BMX-IN-1 + Phenformin; first compound 0.02 µM) | relative viability (BMX-IN-1 + Phenformin; first compound 0.2 µM) | relative viability (BMX-IN-1 + Phenformin; first compound 0.6325 µM) | relative viability (BMX-IN-1 + Phenformin; first compound 2 µM) | relative viability (PAC-1 + Crizotinib; first compound 0.02 µM) | relative viability (PAC-1 + Crizotinib; first compound 0.06325 µM) | relative viability (PAC-1 + Crizotinib; first compound 0.2 µM) | relative viability (PAC-1 + Crizotinib; first compound 2 µM) | relative viability (Ibrutinib + Pictilisib; first compound 0.005 µM) | relative viability (Ibrutinib + Pictilisib; first compound 0.01581 µM) | relative viability (Ibrutinib + Pictilisib; first compound 0.05 µM) | relative viability (Ibrutinib + Pictilisib; first compound 0.1581 µM) | relative viability (Ibrutinib + Pictilisib; first compound 0.5 µM) |
| --- | --- | --- | --- | --- | --- | --- | --- | --- | --- | --- | --- | --- | --- | --- | --- | --- | --- |
| NCI-H1975 | 1.27 | 0.869 | 1.23 | 0.929 | 0.404 | 0.428 | 0.453 | 0.416 | 0.919 | 0.916 | 0.944 | 1 | 0.264 | 0.271 | 0.234 | 0.313 | 0.105 |
| NCI-H1993 | 0.68 | 0.754 |  | 0.815 | 0.438 | 0.525 | 0.453 | 0.492 | 0.811 | 0.831 | 0.626 | 0.743 | 0.777 | 0.7 | 0.139 |  | 0.871 |
| NCI-H2009 | 0.661 | 1.04 | 1.1 | 0.893 | 0.47 | 0.549 | 0.531 | 0.485 | 1.04 | 1.05 | 0.979 | 0.964 | 0.593 | 0.846 | 0.742 | 0.468 | 0.759 |
| NCI-H2023 | 1.19 | 0.954 | 1.19 | 0.855 | 0.466 | 0.522 | 0.418 | 0.413 | 0.629 | 0.635 | 0.534 | 0.586 | 0.165 | 0.308 | 0.207 | 0.25 | 0.206 |
| NCI-H2085 | 0.831 | 0.821 | 0.764 | 0.763 | 0.664 | 0.68 | 0.81 | 0.707 | 0.742 | 0.899 | 0.789 | 0.947 | 0.432 | 0.473 | 0.48 | 0.369 | 0.417 |
| NCI-H2087 | 1.02 | 1.29 | 1.36 | 1.06 | 0.462 | 0.572 | 0.508 | 0.443 | 0.995 | 0.966 | 0.728 | 0.68 | 0.686 | 0.878 | 0.973 | 0.339 | 0.862 |
| NCI-H2126 | 0.899 | 0.768 | 0.827 | 0.784 | 0.517 | 0.559 | 0.581 | 0.526 | 1.03 | 1.02 | 1.05 | 1 |  | 0.469 | 0.454 | 0.399 | 0.43 |
| NCI-H2170 | 0.281 | 0.28 | 0.272 | 0.271 | 0.375 | 0.4 | 0.415 | 0.416 | 1.15 | 1.25 | 1.14 | 1.03 | 0.234 | 0.312 | 0.243 | 0.261 | 0.169 |
| NCI-H2228 | 1.89 | 1.09 | 1.52 | 0.929 | 0.339 | 0.388 | 0.458 | 0.37 | 0.467 | 0.416 | 0.498 | 0.398 | 0.316 | 0.486 | 0.276 | 0.433 | 0.386 |
| NCI-H2347 | 1.01 | 1.06 | 0.991 | 0.944 | 0.314 | 0.368 | 0.38 | 0.357 | 0.82 | 0.715 | 0.748 | 0.826 | 0.648 | 0.672 | 0.587 | 0.299 | 0.535 |
| NCI-H2405 | 1.15 | 1.04 | 1.09 | 1.05 | 0.389 | 0.568 | 0.391 | 0.429 | 0.862 | 0.829 | 0.818 | 0.862 | 0.33 | 0.384 | 0.282 |  | 0.485 |
| NCI-H3122 | 1.1 | 1.08 | 0.988 | 1.05 | 0.377 | 0.633 | 0.41 | 0.38 | 0.251 | 0.274 | 0.234 | 0.294 | 0.563 | 0.61 | 0.69 | 0.375 | 0.533 |
| PC-3 [JPC-3] | 0.533 | 0.466 | 0.47 | 0.476 | 0.459 | 0.488 | 0.483 | 0.491 | 1.03 | 1.07 | 0.944 | 0.972 | 0.621 | 0.685 | 0.686 | 0.531 | 0.528 |
| PC-14 | 0.356 | 0.321 | 0.338 | 0.258 | 0.575 | 0.535 | 0.809 | 0.583 | 0.946 | 0.931 | 0.855 | 0.945 | 0.72 | 0.621 | 0.558 | 0.88 | 0.101 |
| RERF-LC-KJ | 0.876 | 0.944 | 0.963 | 0.918 | 0.439 | 0.408 | 0.42 | 0.416 | 0.814 | 0.868 | 0.811 | 0.923 | 0.482 | 0.518 | 0.46 | 0.548 | 0.441 |
| SK-LU-1 | 1.3 | 0.779 | 0.938 | 0.771 | 0.513 | 0.636 | 0.626 | 0.524 | 0.788 | 0.856 | 0.93 | 0.794 | 0.381 | 0.509 | 0.542 | 0.55 | 0.549 |
| SW 1573 | 1.31 | 1.29 | 1.24 | 0.701 | 0.383 | 0.446 | 0.342 | 0.351 | 0.786 | 0.658 | 0.701 | 0.839 | 0.416 | 0.466 | 0.478 | 0.414 | 0.503 |
| UMC-11 | 1.1 | 1.1 | 1.28 | 1.1 | 0.294 | 0.316 | 0.356 | 0.367 | 0.62 | 0.606 | 0.546 | 0.666 | 0.31 | 0.781 | 0.795 | 0.777 | 0.784 |
